In PubChem BioAssay AID2060599 (Molecular Pharmacology Branch, DTP, NCI, 2025):
Where “and” joins values, the source holds several entries; their conditions need not be identical. Equal values may be shown once. Values belong to the compound of their own block, whether it stands above or below them.

Tested on: 817829-284-R-J1-PDC complex spheroids, viability
Assay: Anticancer human tumor 817829-284-R-J1-PDC patient-derived colon adenocarcinoma cell line growth inhibition [CLK]
Details: for viability, T/C: stronger effect = lower value
Procedure, shortened: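 Patient-derived tumor cells grown as complex spheroids with HUVEC endothelial cells and mesenchymal stem cells, treated with drug combinations. Concentrations descend in half-log steps from near clinical Cmax, or from 10 microM if Cmax unknown.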

[1] = curve of first compound, second compound 0.0316 µM
[2] = curve of first compound, second compound 0.1 µM
[3] = curve of first compound, second compound 0.316 µM
[4] = curve of first compound, second compound 1 µM
[5] = curve of first compound, second compound 3.16 µM
[6] = curve of first compound, second compound 10 µM
[7] = second compound 0.0316 µM, first compound 0.0316 µM
[8] = second compound 0.0316 µM, first compound 0.1 µM
[9] = second compound 0.0316 µM, first compound 0.316 µM
[10] = second compound 0.0316 µM, first compound 1 µM
[11] = second compound 0.1 µM, first compound 0.0316 µM
[12] = second compound 0.1 µM, first compound 0.1 µM
[13] = second compound 0.1 µM, first compound 0.316 µM
[14] = second compound 0.1 µM, first compound 1 µM
[15] = second compound 0.316 µM, first compound 0.0316 µM
[16] = second compound 0.316 µM, first compound 0.1 µM
[17] = second compound 0.316 µM, first compound 0.316 µM
[18] = second compound 0.316 µM, first compound 1 µM
[19] = second compound 1 µM, first compound 0.0316 µM
[20] = second compound 1 µM, first compound 0.1 µM
[21] = second compound 1 µM, first compound 0.316 µM
[22] = second compound 1 µM, first compound 1 µM
[23] = second compound 3.16 µM, first compound 0.0316 µM
[24] = second compound 3.16 µM, first compound 0.1 µM
[25] = second compound 3.16 µM, first compound 0.316 µM
[26] = second compound 3.16 µM, first compound 1 µM
[27] = second compound 10 µM, first compound 0.0316 µM
[28] = second compound 10 µM, first compound 0.1 µM
[29] = second compound 10 µM, first compound 0.316 µM
[30] = second compound 10 µM, first compound 1 µM
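Note: spheroids exposed to the agents for seven days before readout.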

SMILES: CC(Nc1ccc2c(c1)OCCn1cc(N3C(=O)OCC3C(F)F)nc1-2)C(N)=O (stereo unspecified) + CN1CCN(c2cc(C(=O)Nc3cc4cc(-c5cnn(C)c5)ccc4cn3)ccn2)CC1
IC50 [1]: 3240 nM
IC50 [2]: < 31.6 nM
IC50 [3]: < 31.6 nM
IC50 [4]: < 31.6 nM
IC50 [5]: < 31.6 nM
IC50 [6]: < 31.6 nM
viability, T/C [7]: 53.4%
viability, T/C [8]: 55.5%
viability, T/C [9]: 56.8%
viability, T/C [10]: 48.1%
viability, T/C (second compound 0.0316 µM, first compound 3.16 µM): 51.4%
viability, T/C (second compound 0.0316 µM, first compound 10 µM): 22.9%
viability, T/C [11]: 20.4%
viability, T/C [12]: 19.2%
viability, T/C [13]: 17%
viability, T/C [14]: 16.8%
viability, T/C (second compound 0.1 µM, first compound 3.16 µM): 14.3%
viability, T/C (second compound 0.1 µM, first compound 10 µM): 10.7%
viability, T/C [15]: 1.57%
viability, T/C [16]: 1.34%
viability, T/C [17]: 0.89%
viability, T/C [18]: 0.83%
viability, T/C (second compound 0.316 µM, first compound 3.16 µM): 0.72%
viability, T/C (second compound 0.316 µM, first compound 10 µM): 0.96%
viability, T/C [19]: 0.08%
viability, T/C [20]: 0.11%
viability, T/C [21]: 0.12%
viability, T/C [22]: 0.07%
viability, T/C (second compound 1 µM, first compound 3.16 µM): 0.09%
viability, T/C (second compound 1 µM, first compound 10 µM): 0.11%
viability, T/C [23]: 0.12%
viability, T/C [24]: 0.15%
viability, T/C [25]: 0.15%
viability, T/C [26]: 0.15%
viability, T/C (second compound 3.16 µM, first compound 3.16 µM): 0.17%
viability, T/C (second compound 3.16 µM, first compound 10 µM): 0.14%
viability, T/C [27]: 0.07%
viability, T/C [28]: 0.08%
viability, T/C [29]: 0.13%
viability, T/C [30]: 0.11%
viability, T/C (second compound 10 µM, first compound 3.16 µM): 0.24%
viability, T/C (second compound 10 µM, first compound 10 µM): 0.14%

IC50 (curve of compound): 3.4 nM and 22.6 nM
SMILES: Cn1ncnc1[C@H]1c2n[nH]c(=O)c3cc(F)cc(c23)N[C@@H]1c1ccc(F)cc1
viability, T/C (compound 0.000316 µM): 65.2% and 92.2%
viability, T/C (compound 0.001 µM): 93.3% and 76.2%
viability, T/C (compound 0.00316 µM): 50.8% and 73.8%
viability, T/C (compound 0.01 µM): 48.2% and 62.2%
viability, T/C (compound 0.0316 µM): 34.8% and 42%
viability, T/C (compound 0.1 µM): 33.3% and 35.4%

SMILES: CCc1c2c(nc3ccc(O)cc13)-c1cc3c(c(=O)n1C2)COC(=O)[C@]3(O)CC + CN1CCN(c2cc(C(=O)Nc3cc4cc(-c5cnn(C)c5)ccc4cn3)ccn2)CC1
IC50 [1]: < 3.16 nM
IC50 [2]: < 3.16 nM
IC50 [3]: < 3.16 nM
IC50 [4]: < 3.16 nM
IC50 [5]: < 3.16 nM
IC50 [6]: < 3.16 nM
viability, T/C (second compound 0.0316 µM, first compound 0.00316 µM): 18.9%
viability, T/C (second compound 0.0316 µM, first compound 0.01 µM): 14.8%
viability, T/C [7]: 12.5%
viability, T/C [8]: 6.83%
viability, T/C [9]: 4.71%
viability, T/C [10]: 2.93%
viability, T/C (second compound 0.1 µM, first compound 0.00316 µM): 14.1%
viability, T/C (second compound 0.1 µM, first compound 0.01 µM): 11.4%
viability, T/C [11]: 7.3%
viability, T/C [12]: 4.95%
viability, T/C [13]: 3.31%
viability, T/C [14]: 1.84%
viability, T/C (second compound 0.316 µM, first compound 0.00316 µM): 2.41%
viability, T/C (second compound 0.316 µM, first compound 0.01 µM): 2.17%
viability, T/C [15]: 1.78%
viability, T/C [16]: 0.79%
viability, T/C [17]: 0.28%
viability, T/C [18]: 0.34%
viability, T/C (second compound 1 µM, first compound 0.00316 µM): 0.09%
viability, T/C (second compound 1 µM, first compound 0.01 µM): 0.12%
viability, T/C [19]: 0.2%
viability, T/C [20]: 0.27%
viability, T/C [21]: 0.27%
viability, T/C [22]: 0.41%
viability, T/C (second compound 3.16 µM, first compound 0.00316 µM): 0.14%
viability, T/C (second compound 3.16 µM, first compound 0.01 µM): 0.18%
viability, T/C [23]: 0.19%
viability, T/C [24]: 0.21%
viability, T/C [25]: 0.31%
viability, T/C [26]: 0.67%
viability, T/C (second compound 10 µM, first compound 0.00316 µM): 0.05%
viability, T/C (second compound 10 µM, first compound 0.01 µM): 0.1%
viability, T/C [27]: 0.12%
viability, T/C [28]: 0.13%
viability, T/C [29]: 0.15%
viability, T/C [30]: 0.1%
